{"source": "paper PMC11206245", "about": "(Pharmaceuticals, 2024)", "key": {"healthy dogs": {"tested_on": "healthy dogs", "experiment": "Study B: safety and toxicity, side and adverse effects, plasma biochemistry", "assay_type": "in vivo", "method": "(§1) Study B involved 9 healthy dogs (8 females and 1 male), including the 4 females from Study A after wash-out and upon confirmation of regular laboratory evaluations. […] Tolerability evaluations were performed via clinical examinations and blood sampling for laboratory evaluation after each treatment. For toxicity assessments, 4, 6, and 8 h after the final administration, the animals were euthanized for tissue collection and histopathological evaluation.\nHemograms were performed following blood collection."}, "[1]": {"design": "method as in PMID 22124669, PMID 20618337", "conditions": "humans; cited from earlier work"}, "[2]": {"experiment": "Study B: 17-AAG pharmacokinetics in subcutaneous interstitial fluid (tissue cages, HPLC)", "assay_type": "in vivo", "conditions": "dogs; for AUC(0-t) / Cmax / half-life: both sexes, dog, subcutaneous interstitial fluid, iv, mean ± SD; for half-life: read-out: t ½ (converted)", "method": "as §1\nIn Study B, samples of interstitial fluid were collected from tissue cages implanted subcutaneously in the dogs. These cages were prepared based on a protocol previously described by Stegemann et al.. They were made from non-toxic, siliconized, flexible, non-irritant PVC tubes with dimensions of 3.5 cm long, an internal diameter of 3 mm, and an external diameter of 5 mm. Three autoclaved cages were surgically implanted between the scapula of each animal under sedation (xylazine 2%, Syntec, Tambore, SP, Brazil) and local anesthesia (lidocaine 2% and epinephrine 0.002%, Syntec). Before and after surgical procedures, antibiotics (enrofloxacin–5 mg/Kg, Syntec) and an anti-inflammatory (ketoprofen 1%–1 mL/Kg, CEVA, Paulínia, SP, Brazil) drug were administered. To allow animals to heal, as well as the formation of the granulation tissue around the cages, a recovery time of 10 days after surgery was considered. The subcutaneous interstitial fluid was collected by percutaneous puncture using a 21 G needle and 20 mL syringe.\nFor the mobile phase, acetonitrile (ACN, J.T.Baker®, Philadelphia, PA, USA) and water with 1% acetic acid (J.T.Baker®)were used. Briefly, aliquots of 200 µL of plasma or 100 µL of subcutaneous interstitial liquid were placed in a 1.5 mL microcentrifuge tube. Subsequently, 600 µL and 300 µL of ACN were added to all plasma and subcutaneous interstitial liquid samples, respectively. The mixture was vortexed for 30 s, followed by centrifugation at 3400× g for 10 min. Next, 500 µL of the plasma supernatant and 250 µL of the subcutaneous interstitial fluid were pipetted into a new vial. The method was validated in accordance with the International Council for Harmonization (ICH) technical requirements for the evaluation of medicinal products. […] No matrix interferences were observed. Two calibrated plasma curves of 17-AAG were validated with different injection volumes. […] Data acquisition and processing were performed using LabSolutions software (Version 5.3).\nCmax, half-life (t ½), distribution volume, and clearance were also determined. Data were analyzed in Excel and WinNonlin using a mono-compartmental model."}, "[3]": {"conditions": "cited from earlier work"}, "[4]": {"conditions": "Study B, third day, out of nine dogs"}}, "note": "Read-outs that look alike come from different tables or passages of the source."}
{"smiles": "C=CCNC1=C2C[C@@H](C)C[C@H](OC)[C@H](O)[C@@H](C)/C=C(\\C)[C@H](OC(N)=O)[C@@H](OC)/C=C\\C=C(/C)C(=O)NC(=CC1=O)C2=O", "note": "[17-AAG, 17-(allylamino)-17-demethoxygeldanamycin]", "values": [{"measurement": "Animals with elevated transaminase levels persisting", "setting": "healthy dogs; Study B, by the fourth day", "result": "only one animal"}, {"measurement": "Animals with bloody diarrhea", "setting": "healthy dogs; Study B, fourth day", "result": "one animal"}, {"measurement": "Animals with pale feces", "setting": "healthy dogs; Study B, fourth day", "result": "seven out of nine"}, {"measurement": "Dogs with elevated levels of ALT and AST", "setting": "healthy dogs; Study B, multiple doses of 150 mg/m^2, three out of nine", "result": 33, "unit": "%"}, {"measurement": "Animals with pasty feces", "setting": "healthy dogs; Study B, second day after administering the second dose", "result": "two out of nine"}, {"measurement": "Animals with bloody diarrhea", "setting": "healthy dogs; [4]", "result": "one"}, {"measurement": "Animals with diarrhea with liquid feces", "setting": "healthy dogs; [4]", "result": "three"}, {"measurement": "Animals with pasty feces", "setting": "healthy dogs; [4]", "result": "two"}, {"measurement": "Dogs presenting elevated levels of ALT, AST and GGT", "setting": "healthy dogs; Study B, three IV doses of 150 mg/m^2", "result": "3/9"}, {"measurement": "Animals with skin reaction with temporarily erupted hairs", "setting": "healthy dogs; dog, in vivo", "result": "only one animal"}, {"measurement": "Animals presenting adverse reactions: ALT", "setting": "healthy dogs; dog, in vivo, iv", "result": "3 (33%) n (%)"}, {"measurement": "Animals presenting adverse reactions: AST", "setting": "healthy dogs; dog, in vivo, iv", "result": "3 (33%) n (%)"}, {"measurement": "Animals presenting adverse reactions: bloody diarrhea", "setting": "healthy dogs; dog, in vivo, iv", "result": "1 (11%) n (%)"}, {"measurement": "Animals presenting adverse reactions: diarrhea (liquid feces)", "setting": "healthy dogs; dog, in vivo, iv", "result": "3 (33%) n (%)"}, {"measurement": "Animals presenting adverse reactions: erythema", "setting": "healthy dogs; dog, in vivo, iv", "result": "0 n (%)"}, {"measurement": "Animals presenting adverse reactions: hyperthermia", "setting": "healthy dogs; dog, in vivo, iv", "result": "0 n (%)"}, {"measurement": "Animals presenting adverse reactions: nausea", "setting": "healthy dogs; dog, in vivo, iv", "result": "0 n (%)"}, {"measurement": "Animals presenting adverse reactions: pasty feces", "setting": "healthy dogs; dog, in vivo, iv", "result": "9 (100%) n (%)"}, {"measurement": "Animals presenting adverse reactions: pruritus", "setting": "healthy dogs; dog, in vivo, iv", "result": "0 n (%)"}, {"measurement": "Animals presenting adverse reactions: vomit", "setting": "healthy dogs; dog, in vivo, iv", "result": "0 n (%)"}, {"measurement": "half-life", "setting": "[1]", "result": "3 to 6", "unit": "h"}, {"measurement": "Concentration in subcutaneous interstitial fluid (tissue cages)", "setting": "[2]; Study B, 150 mg/m^2 IV, at all times evaluated / at 48 h intervals", "result": "~100", "unit": "ng/mL"}, {"measurement": "AUC(0-t)", "setting": "[2]; 150 mg/m2, AUC 0–8 h, Study B, 1st administration of 150 mg/m^2 IV", "result": "2660 ± 437", "unit": "ng·h/mL"}, {"measurement": "AUC(0-t)", "setting": "[2]; 150 mg/m2, AUC 0–8 h, Study B, 2nd administration of 150 mg/m^2 IV", "result": "2910 ± 686", "unit": "ng·h/mL"}, {"measurement": "AUC(0-t)", "setting": "[2]; 150 mg/m2, AUC 0–8 h, Study B, 3rd administration of 150 mg/m^2 IV", "result": "2730 ± 1440", "unit": "ng·h/mL"}, {"measurement": "Cmax", "setting": "[2]; 150 mg/m2, Study B, 1st administration of 150 mg/m^2 IV", "result": "704 ± 332", "unit": "ng/mL"}, {"measurement": "Cmax", "setting": "[2]; 150 mg/m2, Study B, 2nd administration of 150 mg/m^2 IV", "result": "736 ± 294", "unit": "ng/mL"}, {"measurement": "Cmax", "setting": "[2]; 150 mg/m2, Study B, 3rd administration of 150 mg/m^2 IV", "result": "726 ± 401", "unit": "ng/mL"}, {"measurement": "AUC(0-t)", "setting": "[2]; 150 mg/m2, Study B, 1st administration of 150 mg/m^2 IV, read-out: AUC 0–4 h", "result": "1820 ± 430", "unit": "ng·h/mL"}, {"measurement": "AUC(0-t)", "setting": "[2]; 150 mg/m2, Study B, 1st administration of 150 mg/m^2 IV, read-out: AUC 0–6 h", "result": "2300 ± 409", "unit": "ng·h/mL"}, {"measurement": "AUC(0-t)", "setting": "[2]; 150 mg/m2, Study B, 1st administration of 150 mg/m^2 IV, read-out: AUC 0–24 h", "result": "4760 ± 333", "unit": "ng·h/mL"}, {"measurement": "AUC(0-t)", "setting": "[2]; 150 mg/m2, Study B, 1st administration of 150 mg/m^2 IV, read-out: AUC 0–47.5 h", "result": "7380 ± 1360", "unit": "ng·h/mL"}, {"measurement": "half-life", "setting": "[2]; 150 mg/m2, Study B, 1st of three IV administrations of 150 mg/m^2 at 48 h intervals", "result": "38 ± 16", "unit": "h"}, {"measurement": "AUC(0-t)", "setting": "[2]; 150 mg/m2, Study B, 2nd administration of 150 mg/m^2 IV, read-out: AUC 0–4 h", "result": "1940 ± 618", "unit": "ng·h/mL"}, {"measurement": "AUC(0-t)", "setting": "[2]; 150 mg/m2, Study B, 2nd administration of 150 mg/m^2 IV, read-out: AUC 0–6 h", "result": "2550 ± 638", "unit": "ng·h/mL"}, {"measurement": "AUC(0-t)", "setting": "[2]; 150 mg/m2, Study B, 2nd administration of 150 mg/m^2 IV, read-out: AUC 0–24 h", "result": "4070 ± 700", "unit": "ng·h/mL"}, {"measurement": "AUC(0-t)", "setting": "[2]; 150 mg/m2, Study B, 2nd administration of 150 mg/m^2 IV, read-out: AUC 0–47.5 h", "result": "7050 ± 2190", "unit": "ng·h/mL"}, {"measurement": "half-life", "setting": "[2]; 150 mg/m2, Study B, 2nd of three IV administrations of 150 mg/m^2 at 48 h intervals", "result": "28 ± 9", "unit": "h"}, {"measurement": "AUC(0-t)", "setting": "[2]; 150 mg/m2, Study B, 3rd administration of 150 mg/m^2 IV, read-out: AUC 0–4 h", "result": "895 ± 408", "unit": "ng·h/mL"}, {"measurement": "AUC(0-t)", "setting": "[2]; 150 mg/m2, Study B, 3rd administration of 150 mg/m^2 IV, read-out: AUC 0–6 h", "result": "2040 ± 1100", "unit": "ng·h/mL"}, {"measurement": "AUC(0-t)", "setting": "[2]; 150 mg/m2, Study B, 3rd administration of 150 mg/m^2 IV, read-out: AUC 0–24 h", "result": "3500 ± 2420", "unit": "ng·h/mL"}, {"measurement": "Solubility in Dimethyl Sulfoxide (DMSO)", "setting": "[3]; according to PubChem", "result": 100, "unit": "mM"}, {"measurement": "Solubility in ethanol", "setting": "[3]; according to PubChem", "result": 10, "unit": "mM"}, {"measurement": "Aqueous solubility", "setting": "[3]; aqueous", "result": "approximately 0.01 mg/mL"}]}
